Measurements: the supplement of paper PMC11821682

Columns and labels:
HL-60 = assay: Cell Health Index (toxicity pseudo-probability over dose series) (index 0-1); higher = more cytotoxic / cell stress;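 also: HL-60 cells exposed 4 h at 37 °C to ten threefold dilutions spanning 5 nM to 100 µM, multiparametric flow cytometry features scored by machine-learning classification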
Danio rerio embryo [1] = assay: BMC10 mortality 24-120 hpf; higher = less toxic
Protocol: (§1)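 ZBEscreen: dechorionated Tropical 5D zebrafish embryos were exposed from 4 hpf in 96-well plates (1% DMSO, 28 °C). All compounds were first tested at 100 µM; hits were retested at 0.005-100 µM. Morphology and mortality were scored at 120 hpf and fitted as BMC10 (3-parameter log-logistic, extra risk). The embryonic photomotor response at 24 hpf and the larval photomotor response at 120 hpf are given as lowest effect levels (K-S test, p<0.01). NA = not significant up to 100 µM; NT = not tested.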

Danio rerio embryo [2] = assay: LEL larval photomotor response dark phase 120 hpf
Protocol: as §1

Danio rerio embryo [3] = assay: BMC10 any morphological effect or mortality at 120 hpf; higher = less toxic
Danio rerio embryo [4] = assay: LEL embryonic photomotor response 24 hpf
Protocol: as §1

| Structure (SMILES) | Cell Health Index (HL-60) | BMC10 mortality 24-120 hpf (Danio rerio embryo [1]) | LEL larval photomotor response dark phase 120 hpf (Danio rerio embryo [2]) | BMC10 any morphological effect or mortality (Danio rerio embryo [3]) | LEL embryonic photomotor response 24 hpf (Danio rerio embryo [4]) |
| --- | --- | --- | --- | --- | --- |
| CN1CCN(C(c2ccccc2)c2ccc(Cl)cc2)CC1.Cl (centres undefined) [Chlorcyclizine] | 0.478 | 15.9 µM | > 100 µM | 8.84 µM | 11.1 µM |
| CC1(C)[C@@H](O)CC[C@@]2(C)[C@@]1([H])[C@@H](O)C[C@]3(C)[C@]2([H])C[C@@H](O)[C@@]4([H])[C@@]3(C)CC[C@]4([H])[C@@](C)(O)CC/C=C(C)/C [20(S)-Protopanaxatriol] | 0.803 | 25.7 µM | > 100 µM | 16.2 µM | 33.3 µM |
| COc1ccc2c(O[C@@H]3C[C@H]4C(=O)N[C@]5(C(=O)NS(=O)(=O)C6CC6)C[C@H]5/C=C\CCCCN(C)C(=O)[C@@H]4C3)cc(-c3nc(C(C)C)cs3)nc2c1C.[Na] [Simeprevir] | 0.903 | 5.01 µM | > 100 µM | 3.6 µM | > 100 µM |
| COc1oc(=O)c2cc(N)ccc2c1Cl [JCP251] | 0.306 | 71.8 µM | 11.1 µM | 42.2 µM | 100 µM |
| CC1(C)CC[C@]2(C(=O)O)CC[C@]3(C)C(=CC[C@@H]4[C@@]5(C)CC[C@H](O)C(C)(C)[C@@H]5CC[C@]43C)[C@@H]2C1 [Oleanolic acid] | 0.354 | 8.42 µM | > 100 µM | 3.43 µM | > 100 µM |
| O[C@H]1CC[C@H](Nc2nc(-c3ccccc3)nc3[nH]ccc23)CC1 [Derenofylline] | 0.201 | 36.8 µM | > 100 µM | 22.7 µM | 100 µM |
| O=c1c(O)c(-c2ccccc2)oc2cc(O)cc(O)c12 [Galangin] | 0.411 | 32.8 µM | > 100 µM | 12.3 µM | 100 µM |
| O=C(Nc1cccc(NC(=O)c2cccc(O)c2O)c1)c1cccc(O)c1O [MST-312] | 0.688 | 74.3 µM | > 100 µM | 65.3 µM | 100 µM |
| COc1cc2c(c(OC)c1OC)-c1c(cc(OC)c(OC)c1OC)C[C@H](C)[C@H](C)C2 [Schisandrin A] | 0.661 | 3.4 µM | > 100 µM | 3.78 µM | 0.015 µM |
| O=c1c(O)c(-c2ccc(O)cc2)oc2cc(O)cc(O)c12 [Kaempferol] | 0.463 | 38.4 µM | > 100 µM | 10 µM | > 100 µM |
| CC(=O)Oc1ccccc1C(=O)Nc1ncc([N+](=O)[O-])s1 [Nitazoxanide] | 0.723 | 45.9 µM | > 100 µM | 44.9 µM | > 100 µM |
| COC(=O)C1=C(C)N=C(c2ncc(F)cc2F)NC1c1ccc(F)cc1Cl (racemic) [(±)-BAY 41-4109] | 0.592 | 12.6 µM | > 100 µM | 8.25 µM | 11.1 µM |
| c1ccc(CNc2nc(NCc3ccccc3)c3ccccc3n2)cc1 [DBeQ] | 0.929 | 1.31 µM | > 100 µM | 1.15 µM | 1.23 µM |
| CN1CC[C@H](c2c(O)cc(O)c3c(=O)cc(-c4ccccc4Cl)oc23)[C@H](O)C1.Cl [Flavopiridol] | 0.49 | 1.71 µM | > 100 µM | 1.2 µM | 3.7 µM |
| CC[C@@]1([C@@H]2O[C@@H]([C@H]3O[C@@](O)(CO)[C@H](C)C[C@@H]3C)C[C@@H]2C)CC[C@H]([C@]2(C)CC[C@]3(C[C@H](O)[C@@H](C)[C@@H]([C@@H](C)[C@@H](OC)[C@H](C)C(=O)[O-])O3)O2)O1.[Na+] [Monensin] | 0.493 | 28.5 µM | 0.005 µM | 27.5 µM | > 100 µM |
| CCC[C@H](NC(=O)/C(C#N)=C/c1cccc(Br)n1)c1ccccc1 [Degrasyn] | 0.909 | 1.92 µM | > 100 µM | 0.411 µM | 1.23 µM |
| CNc1ccc([N+](=O)[O-])c(Nc2ccc3[nH]ncc3c2)n1 [KRIBB11] | 0.372 | 0.805 µM | 1.23 µM | 3.27 µM | 11.1 µM |
| CCc1nc(N)nc(N)c1-c1ccc(Cl)cc1 [Pyrimethamine] | 0.324 | 30 µM | > 100 µM | 3.56 µM | 100 µM |
| CCCCCCC(=O)CCCCCC/C=C/C[C@@H](O)[C@H](O)[C@@](N)(CO)C(=O)O [Myriocin] | 0.324 | 1.46 µM | > 100 µM | 1.03 µM | > 100 µM |
| Cc1cc(Nc2nc(N[C@@H](C)c3ccc(F)cc3)c(C#N)cc2F)n[nH]1 [AZ-960] | 0.78 | 1.95 µM | > 100 µM | 1.27 µM | 3.7 µM |
| CN1CCN(C(c2ccc(Cl)cc2)c2ccc(Cl)cc2)CC1 [1-[bis(4-chlorophenyl)methyl]-4-methyl-piperazine] | 0.934 | 16.1 µM | > 100 µM | 12.6 µM | 11.1 µM |

| Structure (SMILES) | Cell Health Index (HL-60) | BMC10 mortality 24-120 hpf (Danio rerio embryo [1]) | LEL larval photomotor response dark phase 120 hpf (Danio rerio embryo [2]) | BMC10 any morphological effect or mortality (Danio rerio embryo [3]) | LEL embryonic photomotor response 24 hpf (Danio rerio embryo [4]) |
| --- | --- | --- | --- | --- | --- |
| COc1ccc(CC(C)C(C)Cc2ccc(OC)c(OC)c2)cc1OC (centres undefined) [Terameprocol] | 0.506 | 24 µM | > 100 µM | 3.12 µM | 3.7 µM |
| N[C@H]1C[C@@H]1c1ccc(-c2cccc(O)c2)cc1 [OG-L002] | 0.334 | 15.4 µM | > 100 µM | 3.27 µM | 0.015 µM |
| C=C[C@H](OC(C)=O)c1ccc(OC(C)=O)cc1 (racemic) [(±)-1'-Acetoxychavicol acetate] | 0.778 | 1.96 µM | > 100 µM | 1.32 µM | > 100 µM |
| Cc1cc(CCCOc2c(C)cc(-c3noc(C(F)(F)F)n3)cc2C)on1 [Pleconaril] | 0.48 | 6.8 µM | > 100 µM | 1.15 µM | 0.41 µM |
| O=C(O[C@@H]1Cc2c(O)cc(O)cc2O[C@H]1c1cc(O)c(O)c(O)c1)c1cc(O)c(O)c(O)c1 [(-)-Gallocatechin gallate] | 0.859 | – | > 100 µM | > 100 µM | > 100 µM |
| CCN(CC)Cc1cc(Nc2ccnc3cc(Cl)ccc23)ccc1O [Amodiaquine] | 0.271 | – | 11.1 µM | 4.04 µM | 1.23 µM |
| Cc1cc(C#N)cc(C)c1Oc1nc(Nc2ccc(C#N)cc2)nc(N)c1Br [Etravirine] | 0.898 | – | > 100 µM | > 100 µM | > 100 µM |
| S=C([S-])OC1CC2CC1C1CCCC21.[K+] (centres undefined) [D609 parent] | 0.277 | – | > 100 µM | > 100 µM | > 100 µM |
| O=C(Nc1ccccc1F)N[C@H]1N=C(c2ccccc2)c2ccccc2NC1=O [RSV-604] | 0.368 | – | > 100 µM | > 100 µM | > 100 µM |
| C[C@H]1CO[C@@H]2Cn3cc(C(=O)NCc4ccc(F)cc4F)c(=O)c(O)c3C(=O)N12 [Cabotegravir] | 0.321 | – | > 100 µM | > 100 µM | > 100 µM |
| C[C@@]1(O)[C@H](O)[C@@H](CO)O[C@H]1n1ccc(N)nc1=O [2'-C-Methylcytidine] | 0.129 | – | > 100 µM | > 100 µM | > 100 µM |
| CC1(C)CC(NC(=O)C(=O)Nc2ccc(Cl)cc2)CC(C)(C)N1 [NBD-556] | 0.302 | – | 11.1 µM | 45.7 µM | 100 µM |
| OC1=CC(OC)=C(C(CC(C2=CC=C(O)C=C2)O3)=O)C3=C1C/C=C(C)/C (centres undefined) [Isoxanthohumol] | 0.183 | – | > 100 µM | > 100 µM | > 100 µM |
| Ic1cccc(/C=N/Nc2nc(N3CCOCC3)nc(N(c3ccccc3)c3ccccc3)n2)c1 [Vacuolin-1] | 0.271 | – | > 100 µM | > 100 µM | 33.3 µM |
| C=C[C@@H]1C[C@]1(NC(=O)[C@@H]1C[C@H](Oc2ncc(OC)c3ccc(Cl)cc23)CN1C(=O)[C@@H](NC(=O)OC(C)(C)C)C(C)(C)C)C(=O)NS(=O)(=O)C1CC1 [Asunaprevir] | 0.536 | – | 3.7 µM | > 100 µM | 11.1 µM |
| OC[C@H]1O[C@@H](O[C@@H]2OC=C[C@H]3[C@H](O)[C@@H]4O[C@]4(CO)[C@@H]23)[C@H](O)[C@@H](O)[C@@H]1O [Catalpol] | 0.184 | – | > 100 µM | > 100 µM | > 100 µM |
| Cc1ccc(NC(=O)C(=O)NC2CC(C)(C)NC(C)(C)C2)cc1 [YYA-021] | 0.184 | – | 33.3 µM | > 100 µM | 100 µM |
| CCOC(=O)c1ccc(OC(=O)CCCCCNC(=N)N)cc1.CS(=O)(=O)O [Gabexate] | 0.22 | – | > 100 µM | > 100 µM | > 100 µM |
| CCOC(=O)[C@H]1O[C@@H]1C(=O)N[C@@H](CC(C)C)C(=O)NCCC(C)C [Aloxistatin] | 0.151 | – | > 100 µM | 10.6 µM | 33.3 µM |
| Cl.Nc1c(Br)cc(Br)cc1CN[C@H]1CC[C@H](O)CC1 [Ambroxol] | 0.244 | – | > 100 µM | 42.5 µM | 100 µM |
